Measurements from US10781229B2, “Tris- or neopentyl glycol-based amphiphiles and uses thereof” (Industry-University Cooperation Foundation Hanyang …, priority 2015, dated 2020).

How the values were obtained:
[1] = biological target: LeuT E192C^TMR (Aquifex aeolicus, UniProt O67854, E192C); test: Site-directed fluorescence (iodide) quenching of LeuT E192C-TMR, Stern-Volmer analysis; type: biochemical
Description: A principle of this experiment is as follows: A cysteine residue was inserted into a 192th LeuT site (E192C), followed by coupling with a thiol-reactive fluorophore (tetramethylrhodamine-5-maleimide, TMR). The prepared LeuT E192C^TMR, as TMR-coupled LeuT, is an excellent system to sensitively monitor protein structure change in response to ligand coupling. […] Due to such change, TMR fluorescence molecules exposed to an aqueous solution become closer to iodide (I^−), as a quencher dissolved in water, whereby strong fluorescence quenching is caused. TMR quenching intensity by leucine coupling may be represented by Stern-Volmer plotting and thus structural flexibility of a protein may be directly measured. Ligand bindability of the TMR-labeled transporter was measured using SPA while increasing the amount of [^3H]leucine.
In particular, structure, expression, purification, and fluorescence labeling were performed according to the following methods. In accordance with a method disclosed in a paper published by C. B. Billesbolle, et al. (J. Biol. Chem. 2015, 290, 26725-26738), a leucine transporter mutant (LeuT E192C^TMR) was produced and purification and labeling were carried out. In summary, a residue of the E192 was mutated with cysteine using QuikChange (Agilent Technologies) such that fluorescence coupling was accomplished by maleimide labeling. The LeuT mutant was expressed in E. coli C41 (DE3). A membrane of DE3 was disrupted and LeuT was solubilized with 1% (w/v) DDM. Subsequently, LeuT solubilized with the amphipathic molecule was fixed to a Chelating Sepharose Fast Flow resin (GE Healthcare, Little Chalfont, UK), followed by washing with tetramethylrhodamine-5-maleimide (TMR, Life Technologies, Carlsbad, Calif., USA) at 4° C. for 16 hours. Subsequently, LeuT was eluted with a buffer containing 300 mM imidazole, 20 mM Tris-HCl (pH 8.0), 1 mM NaCl, 199 mM KCl, and 0.05% DDM.
Fluorescence spectroscopy was carried out according to the following method. A fluorescence-based experiment was carried out by diluting 0.5 μg ml^−1 of fluorescence-labeled LeuT with buffer A supplemented with CMC+0.04% by weight of DDM, MNG-3 or NDT-C11. Leucine was separately added to specimen aliquots of LeuT for each concentration and incubated for one hour in a room temperature shaker. Steady-state fluorescence intensities were recorded with a FluoroMax4 (Horiba Scientific, Edison, N.J., USA) at λem=572 nm and excitation source at λex=552 nm at 25° C. Quencher-titration was carried out by successive additions of small specimen aliquots containing 1 M KI into buffer A supplemented with 10 mM Na2S2O3. Fluorescence intensities (F) were corrected for sample dilution and normalized to the initial intensity (F0) of a sample. All data was analyzed by linear-(Stern-Volmer plot) or nonlinear regression in GraphPad Prism 6.0 (GraphPad Software). The degree of iodide (I^−) accessibility was obtained from the following Stern-Volmer equation: F0/F=1+Ksv×[Q], where F0/F is normalized fluorescence quenching, Ksv is a Stern-Volmer constant, and [Q] is quencher concentration. When means are calculated as a log, the means are shown as pIC50 and the [s.e.m. interval] from pIC50±s.e.m.
Values of radioligand binding constants were calculated through SPA saturation binding experiments. Values of iodide quenching-response constants and ΔKSV were calculated from a site-directed fluorescence quenching spectroscopy. The affinity (Kd) is shown as means±s.e.m and ΔKSV is shown as means [s.e.m. interval]. All data is shown as means of three to four independent experiments.

[2] = Hydrodynamic radius and size distribution of micelles by dynamic light scattering (DLS); type: physicochemical
Protocol: A method of measuring the radius of a micelle is not specifically limited and may be any method generally known in the art. For example, the radius may be measured by a dynamic light scattering (DLS) experiment.
In particular, critical micellar concentrations (CMCs) were measured using hydrophobic fluorescence staining and diphenylhexatriene (DPH), and hydrodynamic radii (Rh) of micelles formed of each material were measured by a dynamic light scattering (DLS) experiment. Measured results are compared to values of DDM as an existing amphipathic molecule (detergent).
Meanwhile, size distributions of the micelles formed of TDTs and NDTs were measured using DLS. Results are illustrated in FIG. 5. TDTs or NDTs were respectively used in an amount of 0.5% by weight. As a result, micelles of TDTs or NDTs were measured as forming a single community.

[3] = system: leucine transporter (LeuT); test: LeuT stability by [3H]-Leu scintillation proximity assay (SPA); type: biochemical, Aquifex aeolicus; settings: CMC+0.2% by weight, room temperature
Protocol: Experiments to measure the structural stability of a leucine transporter (LeuT) protein by TDTs or NDTs were conducted. LeuT protein activity was measured by scintillation proximity assay (SPA) utilizing [^3H]-Leu as a ligand. The concentration of TDTs, NDTs, or DDM was (a) CMC+0.04% by weight, or (b) CMC+[…].
In particular, the LeuT stability measurement experiments were conducted according to the following methods. Depending upon the results of UapA and MelB, only TDT-C11, TDT-C12, NDT-C10, NDT-C11 and NDT-C12 among the amphipathic molecules according to the present invention were selectively used. In accordance with a method disclosed in a paper published by G. Deckert, et al. (Nature 1998, 392, 353-358), a wild-type leucine transporter (LeuT) was purified from Aquifex aeolicus. LeuT is expressed in E. coli C41 (DE3) transformed with pET16b encoding a C-terminal 8×His-tagged transporter (the expression plasmid was provided by Dr E. Gouaux, Vollum Institute, Portland, Oreg., USA). In summary, the […] protein was isolated and solubilized with 1.0% by weight of DDM, followed by binding the protein to a Ni^2+-NTA resin (Life Technologies, Denmark) and eluting the same with 20 mM Tris-HCl (pH 8.0), 1 mM NaCl, 199 mM KCl, 0.05% DDM, and 300 mM imidazole. Next, about 1.5 mg/ml of a protein stock was 10-fold diluted with a buffer in which DDM and imidazole are absent, but TDTs, NDTs, or DDM (control) is supplemented such that a final concentration becomes CMC+0.04% by weight or CMC+0.2% by weight. Protein samples were stored at room temperature and centrifuged at a predetermined time. To evaluate protein activity, [^3H]-Leu coupling was measured using scintillation proximity assay (SPA) (M. Quick et al., Proc. Natl, Acad. Sci. U.S.A. 2007, 104, 3603-3608). 5 μL of each protein sample dissolved in a buffer that contained 200 mM NaCl and each test compound was analyzed. SPA reaction was carried out in the presence of 20 nM [^3H]-Leu and copper chelate (His-Tag) YSi beads (both purchased from PerkinElmer, Denmark). [^3H]-Leu coupling was measured by means of a MicroBeta liquid scintillation counter (PerkinElmer).

[4] = biological target: T1, melibiose permease (MelB), MelBSt (Salmonella typhimurium, UniProt P30878); test: MelB extraction efficiency and stability by SDS-PAGE and western immunoblotting; settings: 1.5% by weight; for MelB protein solubilization effect versus temperature: 0 to 45° C. and above; for MelB protein extraction efficiency from membrane: 0° C.
T1 construct: made in house; host or cells: 'Salmonella typhimurium DW2 cell (melB and lacZY)', plasmid pK95AHB/WT MelBSt/CH10
Protocol: Experiments to measure the extraction efficiency and structural stability of a Salmonella typhimurium melibiose permease (MelB) protein by TDTs or NDTs were conducted. The MelB protein was extracted using TDTs, NDTs, or DDM and then the amounts and structures of extracted proteins were quantitatively analyzed by SDS-PAGE and western immunoblotting. The concentrations of the used amphipathic molecules were 1.5% by weight. Protein extraction was carried out at four temperatures (0, 45, 55 or 65° C.) for 90 minutes to simultaneously evaluate the protein extraction efficiency and stabilization ability of the amphipathic molecules.
In particular, in accordance with a method disclosed in a paper (P. S. Chae, et al., Chemistry. 2013, 19, 15645-15651) published by the present inventors, a protein (MelBSt) was produced using a pK95AHB/WT MelBSt/CH10 plasmid and a Salmonella typhimurium DW2 cell (melB and lacZY) to encode wild-type MelB having a 10-His tag at a C-terminal. In accordance with a method disclosed in a paper (Nat. Commun. 2014, 5, 3009) published by A. S. Ethayathulla, et al., cell proliferation and membrane preparation was carried out. Protein analysis was performed using a Micro BCA kit (Thermo Scientific, Rockford, Ill.). So as to measure the solubilization/stability of MelBSt, a membrane sample including MelBSt (final protein concentration of 10 mg/mL) was mixed with a solubilization buffer (20 mM sodium phosphate, pH 7.5, 200 mM NaCl, 10% glycerol, and 20 mM melibiose) and 1.5% (w/v) DDM, TDTs or NDTs. An extracted product was incubated at four temperatures (0, 45, 55 and 65° C.) for 90 minutes. Ultracentrifugation was carried out for 45 minutes at 4° C. and 355,590 g by means of a Beckman Optima™ MAX ultracentrifuge and a TLA-100 rotor. Subsequently, 20 μg of a protein was separated by SDS-16% PAGE and then subjected to immunoblotting with a Penta-His-HRP antibody (Qiagen, Germantown, Md.).

T1 sequence (P30878 whole entry): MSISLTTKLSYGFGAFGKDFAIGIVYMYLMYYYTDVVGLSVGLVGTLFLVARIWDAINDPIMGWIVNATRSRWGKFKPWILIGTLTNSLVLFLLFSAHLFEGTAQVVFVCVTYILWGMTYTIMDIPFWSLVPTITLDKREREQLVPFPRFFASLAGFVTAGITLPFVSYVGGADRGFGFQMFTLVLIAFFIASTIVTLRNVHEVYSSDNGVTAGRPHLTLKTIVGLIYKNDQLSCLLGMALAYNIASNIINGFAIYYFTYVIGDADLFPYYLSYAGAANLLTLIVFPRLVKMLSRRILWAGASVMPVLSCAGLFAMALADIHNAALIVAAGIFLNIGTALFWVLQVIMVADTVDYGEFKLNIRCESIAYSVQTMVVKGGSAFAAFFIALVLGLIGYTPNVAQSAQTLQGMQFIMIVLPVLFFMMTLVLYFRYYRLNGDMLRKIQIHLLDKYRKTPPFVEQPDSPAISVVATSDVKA

In the case of `CCCCCCCCCCC(CCCCCCCCCC)(CO[C@@H]1O[C@H](CO)[C@@H](O[C@H]2O[C@H](CO)[C@@H](O)[C@H](O)[C@H]2O)[C@H](O)[C@H]1O)CO[C@@H]1O[C@H](CO)[C@@H](O[C@H]2O[C@H](CO)[C@@H](O)[C@H](O)[C@H]2O)[C@H](O)[C@H]1O` [MNG-3], the “Structural fluidity of the LeuT protein” value ([1]; conclusion from ΔKsv) is reported as “tends to greatly limit the structural fluidity” and the “Δ KSV” value ([1]; leucine-induced change of iodide accessibility of TMR, CMC+0.04% by weight detergent, means [s.e.m. interval]) is reported as 0.4 M⁻¹.

In the case of `CCCCCCCCCC(CCCCCCCCC)COCC(CO[C@@H]1OC(CO)[C@@H](O)C(O)C1O)(CO[C@@H]1OC(CO)[C@@H](O)C(O)C1O)CO[C@@H]1OC(CO)[C@@H](O)C(O)C1O` (stereo partly shown) [NDT-C9], the “Rh (hydrodynamic radius of micelles)” value [2] is reported as 3.1 ± 0.1 nm.

With `CCCCCCCCCCC(CCCCCCCCCC)COCC(CO[C@@H]1OC(CO)[C@@H](O)C(O)C1O)(CO[C@@H]1OC(CO)[C@@H](O)C(O)C1O)CO[C@@H]1OC(CO)[C@@H](O)C(O)C1O` (stereo partly shown) [NDT-C10] the “LeuT protein stabilization ability ([3H]-Leu binding)” value [3] was “excellent” and the “Rh (hydrodynamic radius of micelles)” value [2] was 3.2 ± 0.1 nm.

For `CCCCCCCCCCCCC(CCCCCCCCCCCC)COCC(CO[C@@H]1OC(CO)[C@@H](O)C(O)C1O)(CO[C@@H]1OC(CO)[C@@H](O)C(O)C1O)CO[C@@H]1OC(CO)[C@@H](O)C(O)C1O` (stereo partly shown) [NDT-C12], the “LeuT protein stabilization ability ([3H]-Leu binding)” value [3] was “excellent”, the “Rh (hydrodynamic radius of micelles)” value [2] was 3.8 ± 0.4 nm and the “MelB protein solubilization effect versus temperature” value [4] was “increase with elevating temperature”. The “MelB protein extraction efficiency from membrane” value ([4]; 90 minutes) was “Slightly decreased solubilization effects”.

In the case of `CCCCCCCCCC(CCCCCCCCC)C(=O)NC(CO[C@@H]1OC(CO)[C@@H](O)C(O)C1O)(CO[C@@H]1OC(CO)[C@@H](O)C(O)C1O)CO[C@@H]1OC(CO)[C@@H](O)C(O)C1O` (stereo partly shown) [TDT-C9], the “Rh (hydrodynamic radius of micelles)” value [2] is reported as 3.4 ± 0.4 nm.

For `CCCCCCCCCCC(CCCCCCCCCC)C(=O)NC(CO[C@@H]1OC(CO)[C@@H](O)C(O)C1O)(CO[C@@H]1OC(CO)[C@@H](O)C(O)C1O)CO[C@@H]1OC(CO)[C@@H](O)C(O)C1O` (stereo partly shown) [TDT-C10], the “Rh (hydrodynamic radius of micelles)” value [2] was 4.5 ± 0.2 nm.

With `CCCCCCCCCCCC(CCCCCCCCCCC)C(=O)NC(CO[C@@H]1OC(CO)[C@@H](O)C(O)C1O)(CO[C@@H]1OC(CO)[C@@H](O)C(O)C1O)CO[C@@H]1OC(CO)[C@@H](O)C(O)C1O` (stereo partly shown) [TDT-C11] the “Rh (hydrodynamic radius of micelles)” value [2] was 37 ± 8.0 nm and the “Amount of MelB protein dissolved” value ([4]; 55° C., 90 minutes) was 65%.

For `CCCCCCCCCCCCC(CCCCCCCCCCCC)C(=O)NC(CO[C@@H]1OC(CO)[C@@H](O)C(O)C1O)(CO[C@@H]1OC(CO)[C@@H](O)C(O)C1O)CO[C@@H]1OC(CO)[C@@H](O)C(O)C1O` (stereo partly shown) [TDT-C12], the “Rh (hydrodynamic radius of micelles)” value [2] was 53 ± 1.2 nm, the “MelB protein solubilization effect versus temperature” value [4] was “increase with elevating temperature” and the “MelB protein extraction efficiency from membrane” value ([4]; 90 minutes) was “Slightly decreased solubilization effects”.
